Results: US5332733A, “Heterocyclically substituted piperazinoakylbenzoxazine and piperazinoalkylbenzothiazine compounds, processes for preparing them, and medicaments containing them” (Kali-Chemie Pharma GmbH, priority 1990, dated 1994)

What was measured:
[1] = system: passive cutaneous anaphylaxis (PCA); experiment: Inhibition of passive cutaneous anaphylaxis (PCA) in rats; assay type: in vivo, Sprague-Dawley rats; settings: Rattus norvegicus, 1 h, 2 × 10^-5 mole/kg per os, one hour before ovalbumin challenge
Method: (§1) 1. Determining Inhibition of Passive Cutaneous Anaphylaxis (PCA) and Histamine-Induced Anaphylactoid Cutaneous Reaction
The PCA reaction is carried out following the methods described by Goose et al. (J. N. Immunology 16 (1969), 749) and by Martin et al. (Arch. Pharmacol. 316 (1981), 186).
The IgE-rich ovalbumin antiserum used in the test was obtained from immunized Brown-Norway rats. The were immunized with an intraperitoneal injection of a mixture of 100 μg of ovalbumin with a Bordetella pertussis suspension (Vaxicoq™, Manufactured by Institute Merieux, containing 5×10^9 organisms and 1.25 mg Al(OH)3). After 20 days the animals were re-immunized with a further intraperitoneal injection of a solution of 10 μg ovalbumin in 0.5 ml physiological saline solution. After a further four days the blood was removed from the animals and centrifuged. The resulting antiserum was stored at -20° C. until use.
(§2) The inhibition of the passive cutaneous anaphylaxis and of the anaphylactoid cutaneous reaction induced by histamine was determined as follows:
(§3) Sprague-Dawley rats having a body weight of 150-180 g were injected intradermally in one flank with 50 μl of a 1:75 dilution of the IgE-rich ovalbumin antiserum in physiological saline solution to passively sensitize them to ovalbumin.
(§4) 24 hours after sensitization a solution of 8.25 mg/kg of ovalbumin and 26.4 mg/kg of a blue dye (Evans's Blue) was administered to the rats intravenously according to Martin et al. to trigger passive cutaneous anaphylaxis.
(§5) On the day of the experiment the test substances were dissolved in distilled water which contained 1 vol. % dimethylformamide and 1 vol. % of Tween™ 20 (=polyoxyethylene (20) sorbitan monolaurate). One hour before administration of the ovalbumin challenge, each animal was orally administered 2×10^-5 mole/kg of test substance in 0.5 ml of solution. For comparison purposes a control group received only the solvent.
(§6) The edematous anaphylactic (PCA) and anaphylactoid (histamine-induced) reactions caused by the stimulation of the intravenous ovalbumin injection, which manifested themselves by edema formation, swelling and exudation of blue dye, were evaluated 30 minutes after their initiation by the intravenous ovalbumin injection. This was done by visually determining the extent to which the blue dye emerged at the sites of edema formation. The percentage inhibition of anaphylactic and anaphylactoid reactions induced by the test substances in comparison with the reactions of the control animals not treated with any test substance was determined using comparison scales.
(§7) The results obtained using compounds of formula I according to the foregoing test methods are shown in the following Table A. The example numbers given for the compounds of formula I relate to the subsequent preparative examples.

[2] = system: histamine-induced anaphylactoid cutaneous reaction; experiment: Inhibition of histamine-induced anaphylactoid cutaneous reaction in rats; assay type: in vivo, Sprague-Dawley rats; settings: Rattus norvegicus, 1 h, 2 × 10^-5 mole/kg per os, one hour before ovalbumin challenge
Method: as §1, §2, §3, §4
To determine the histamine-induced anaphylactoid skin reaction, the animals are injected intradermally in the flank opposite to the antiserum administration with 50 μl of a physiological saline solution containing 0.8 mg/ml histamine directly before the intravenous injection of the solution containing the ovalbumin and the blue dye.
as §5, §6, §7

Structure (SMILES)	inhibition in vivo at 20 µmol/kg [1] [%]	inhibition in vivo at 20 µmol/kg [2] [%]
Cc1ccnc(N2CCN(CCCCC3Sc4ccccc4NC3=O)CC2)c1 (stereo not drawn) [Example 1, 2-{4-[4-(4-methylpyridin-2-yl)-piperazin-1-yl]butyl}-2H-1,4-benzothiazine-3(4H)-one]	88	55
O=C1Nc2ccccc2SC1CCCN1CCN(c2ccc(Cl)cn2)CC1 (stereo not drawn) [Example 15]	60	30
Cc1ccnc(N2CCN(CCCC3Sc4ccccc4NC3=S)CC2)c1 (stereo not drawn) [Example 11]	55	20
Cc1ccnc(N2CCN(CCCC3Sc4ccccc4NC3=O)CC2)c1 (stereo not drawn) [Example 8]	73	60
Cc1ccnc(N2CCN(CCCCC3Oc4ccccc4NC3=O)CC2)c1 (stereo not drawn) [Example 7]	70	40
Cc1ccnc(N2CCN(CCCC3Oc4ccccc4NC3=O)CC2)c1 (stereo not drawn) [Example 9]	60	30
